One compound from patent US20100021940A1, “Method for Determining the Activity of a Protease in a Sample” (ASTRAZENECA AB, priority 2006, published 2010) can be followed below.

One test concerns the target MMP13 (Homo sapiens, UniProt P45452). The experiment in a line: Activity of purified MMP on substrate (reporter release). Conditions: 30 μM substrate; MMP Conc. 1.2 nM; AZAP0.5 mg/ml. The class given is biochemical. From the text:
(§1) In order to confirm the specificity of the substrates for various MMPs, standard enzymatic assays were adapted to monitor the release of reporter. The reporter was either analysed by a LC-MS method as described in Example 3a, or by a LC-UV method as described in Example 4.
(§2) A protocol for testing against other matrix metalloproteinases, including MMP9, using expressed and purified pro MMP is described, for instance, by C. Graham Knight et al., (1992) FEBS Lett., 296(3), 263-266.

The target in another test is MMP16 (Homo sapiens, UniProt P51512). The description is as above. The test is classed as biochemical. Conditions: 30 μM substrate; MMP Conc. 4.3 nM; Calbiochem #475939.
Excerpt: as §1, §2

For a further test, the system named is MMP9. The test is described as above. The test is classed as biochemical, human. An excerpt: In order to confirm the specificity of the substrates for various MMPs, standard enzymatic assays were adapted to monitor the release of reporter. The reporter was either analysed by a LC-MS method as described in Example 3a, or by a LC-UV method as described in Example 4. […] The enzyme can be used to monitor activity of substrates as follows: […]

In another test the target is T1, MMP8 (Homo sapiens, UniProt P22894).
T1 construct: purchased Calbiochem
The description is as above. The test is classed as biochemical. As to the method:
In order to confirm the specificity of the substrates for various MMPs, standard enzymatic assays were adapted to monitor the release of reporter. The reporter was either analysed by a LC-MS method as described in Example 3a, or by a LC-UV method as described in Example 4. Purified pro-MMP8 is purchased from Calbiochem. The enzyme (at 10 μg/ml) is activated by p-amino-phenyl-mercuric acetate (APMA) at 1 mM for 2.5 h, 35° C. The activated enzyme can be used to monitor activity of substrates as follows: MMP8 (200 ng/ml final concentration) is incubated for 90 minutes at 35° C.

In a further test the target is MMP3 (Homo sapiens, UniProt P08254). The description is as above. The test is classed as biochemical. From the text:
(§3) In order to confirm the specificity of the substrates for various MMPs, standard enzymatic assays were adapted to monitor the release of reporter. The reporter was either analysed by a LC-MS method as described in Example 3a, or by a LC-UV method as described in Example 4. A protocol for testing against other matrix metalloproteinases, including MMP9, using expressed and purified pro MMP is described, for instance, by C.

A further test has as its target T2, MMP1 (Homo sapiens, UniProt P03956).
T2 sequence (P03956 100-469): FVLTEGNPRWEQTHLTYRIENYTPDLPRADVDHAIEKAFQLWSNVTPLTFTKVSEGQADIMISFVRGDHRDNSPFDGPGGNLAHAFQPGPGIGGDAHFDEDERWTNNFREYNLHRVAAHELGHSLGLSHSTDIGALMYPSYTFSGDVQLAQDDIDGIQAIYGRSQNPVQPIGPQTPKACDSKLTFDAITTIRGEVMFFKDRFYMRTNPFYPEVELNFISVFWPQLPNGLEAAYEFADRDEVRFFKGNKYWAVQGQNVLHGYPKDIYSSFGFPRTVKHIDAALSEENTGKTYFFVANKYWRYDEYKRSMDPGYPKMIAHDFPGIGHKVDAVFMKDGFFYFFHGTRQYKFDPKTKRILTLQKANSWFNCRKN
The description is as above. The test is classed as biochemical.
Excerpt: as §3

For a further test, the system named is MMP14. The description is as above. The test is classed as biochemical, human. Conditions: 30 μM substrate; MMP Conc. 4.8 nM; AZL0078.
Excerpt: as §1
Recombinant human MMP14 catalytic domain may be expressed and purified as described by Parkar A. A. et al, (2000), Protein Expression and Purification, 20, 152. The purified enzyme can be used to monitor activity of substrates as follows: MMP14 (10 ng/ml final […]) in assay buffer (0.1M “Tris-HCl” (trade mark) buffer, pH 7.5 containing 0.1M NaCl, 20 mM CaCl2, 0.020 mM ZnCl and 0.05% (w/v) “Brij 35” (trade mark) detergent) in the presence or absence of inhibitors. Activity is determined by measuring the release of reporter 4-nitroaniline by the using the method in Example 3a.

A further test concerns MMPs. Put plainly: Cleavage of separated diastereomers by MMPs to liberate the reporter. The test is classed as biochemical.
For a further test, the target named is T3, MMP12 (Homo sapiens, UniProt P39900).
T3 construct: Recombinant human MMP12 catalytic domain may be expressed and purified; made in house
Put plainly: Activity of purified MMP on substrate (reporter release). The class given is biochemical. As to conditions: 30 μM substrate; MMP Conc. 0.27 nM; ABL010827.
Excerpt: as §1
Recombinant human MMP12 catalytic domain may be expressed and purified as described by Parkar A. A. et al, (2000), Protein Expression and Purification, 20, 152. The purified enzyme can be used to monitor activity of substrates as follows: MMP12 (50 ng/ml final […]) in assay buffer (0.1M “Tris-HCl” (trade mark) buffer, pH 7.3 containing 0.1M NaCl, 20 mM CaCl2, 0.020 mM ZnCl and 0.05% (w/v) “Brij 35” (trade mark) detergent) in the presence or absence of inhibitors. Activity is determined by measuring the release of reporter 4-nitroaniline by the using the method in Example 3a.

The subject of another test is MMP19. The description is as above. The class given is biochemical, human. Conditions: 30 μM substrate; MMP Conc. 19 nM; AZL0095.
Excerpt: as §1
Recombinant human MMP19 catalytic domain may be expressed and purified as described by Parkar A. A. et al, (2000), Protein Expression and Purification, 20:152. The purified enzyme can be used to monitor activity of substrates as follows: MMP19 (40 ng/ml […]) in assay buffer (0.1M “Tris-HCl” (trade mark) buffer, pH 7.3 containing 0.1M NaCl, 20 mM CaCl2, 0.020 mM ZnCl and 0.05% (w/v) “Brij 35” (trade mark) detergent) in the presence or absence of inhibitors. Activity is determined by measuring the release of reporter 4-nitroaniline by the using the method in Example 3a.

The structures appear in SMILES notation.

T1 sequence (P22894 101-467): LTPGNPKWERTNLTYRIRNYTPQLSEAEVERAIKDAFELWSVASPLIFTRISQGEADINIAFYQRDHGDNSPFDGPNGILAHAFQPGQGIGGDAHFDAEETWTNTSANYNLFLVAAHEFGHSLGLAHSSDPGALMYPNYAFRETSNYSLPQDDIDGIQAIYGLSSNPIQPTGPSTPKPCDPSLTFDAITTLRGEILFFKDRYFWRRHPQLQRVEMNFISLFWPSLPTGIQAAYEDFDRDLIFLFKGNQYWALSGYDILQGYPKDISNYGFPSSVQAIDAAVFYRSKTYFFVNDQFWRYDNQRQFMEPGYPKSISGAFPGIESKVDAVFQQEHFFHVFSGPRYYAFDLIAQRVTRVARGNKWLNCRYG
MMP3, sequence (P08254 100-477): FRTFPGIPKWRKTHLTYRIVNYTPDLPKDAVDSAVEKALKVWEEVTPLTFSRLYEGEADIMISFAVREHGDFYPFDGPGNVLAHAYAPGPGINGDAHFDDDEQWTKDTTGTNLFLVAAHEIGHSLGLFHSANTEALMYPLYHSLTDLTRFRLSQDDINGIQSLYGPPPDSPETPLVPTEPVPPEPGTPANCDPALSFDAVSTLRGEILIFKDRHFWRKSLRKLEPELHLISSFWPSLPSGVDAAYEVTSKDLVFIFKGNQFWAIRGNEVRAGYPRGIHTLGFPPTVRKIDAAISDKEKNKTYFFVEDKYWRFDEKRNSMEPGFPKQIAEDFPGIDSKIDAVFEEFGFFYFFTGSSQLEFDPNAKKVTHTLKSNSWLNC
MMP16, sequence (P51512 120-607): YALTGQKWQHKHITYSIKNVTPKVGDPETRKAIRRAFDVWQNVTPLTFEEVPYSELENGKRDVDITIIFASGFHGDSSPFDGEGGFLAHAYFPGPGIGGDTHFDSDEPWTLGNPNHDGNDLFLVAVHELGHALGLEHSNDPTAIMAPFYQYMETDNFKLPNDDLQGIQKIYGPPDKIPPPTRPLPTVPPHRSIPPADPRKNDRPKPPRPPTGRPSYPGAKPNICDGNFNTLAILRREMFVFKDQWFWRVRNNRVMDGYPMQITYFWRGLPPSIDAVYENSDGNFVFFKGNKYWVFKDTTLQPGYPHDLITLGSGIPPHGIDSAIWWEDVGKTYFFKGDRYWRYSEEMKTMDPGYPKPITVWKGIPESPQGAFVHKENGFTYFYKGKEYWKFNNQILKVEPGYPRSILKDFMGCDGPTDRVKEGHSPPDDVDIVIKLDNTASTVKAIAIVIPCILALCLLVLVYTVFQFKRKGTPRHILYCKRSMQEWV
T3 sequence (P39900 106-263 limits assumed): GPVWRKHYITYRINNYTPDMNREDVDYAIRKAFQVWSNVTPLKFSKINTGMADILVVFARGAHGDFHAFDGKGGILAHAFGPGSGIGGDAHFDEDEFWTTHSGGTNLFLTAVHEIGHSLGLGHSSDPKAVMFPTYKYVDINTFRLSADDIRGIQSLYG

In the case of `COC(=O)CCNC(=O)[C@H](CC(C)C)NC(=O)[C@@H](NC(=O)CNC(=O)[C@H](CC(C)C)NC(=O)[C@@H]1CCCN1C(C)=O)Nc1ccc([N+](=O)[O-])cc1` [Example 1.1, Methyl 1-acetyl-L-prolyl-L-leucylglycyl-α-R-(4-nitrophenylamino)-glycyl-L-leucyl-β-alaninate], the Activity at MMP13 turned out to be 1.9 units/s; at MMP16 it was 1.4 units/s; in the test with MMP9 (30 μM substrate, MMP Conc. 0.27 nM, AZL0064) it was 7.4 units/s; at MMP8 (30 μM substrate, MMP Conc. 2.7 nM, Calbiochem #444229) it was 1.1 units/s; on MMP3 (30 μM substrate, MMP Conc. 19 nM, AZL0095), 0.048 units/s; on MMP1 (30 μM substrate, MMP Conc. 9.3 nM, Calbiochem #444208), 0.16 units/s. For the same compound, the Activity with MMP14 is recorded as 1.0 units/s; on MMP12, 7.7 units/s; in the test on MMP19 it was 0.13 units/s. Besides, the “Activity of selected substrates with MMPs” value with MMP9 (Table 1b, MMP9) is 62.9 units/s (molRXH/molEnz * s); on MMP8 (Table 1b, MMP8) it was 120.4 units/s (molRXH/molEnz * s); at MMP3 (Table 1b, MMP3), 3.8 units/s (molRXH/molEnz * s); on MMP1 (Table 1b, MMP1), 26.1 units/s (molRXH/molEnz * s). Moreover, the “Cleavage by MMPs to liberate the reporter” value with MMPs is listed as “rapidly cleaved by MMPs”.
